In patent US6251861A, “Treatment of cerebral infarction using cyclic hexapeptides” (Takeda Chemical Industries, Ltd., priority 1996, dated 2001):

System: total brain infarct models (gerbils, bilateral common carotid arteries obstructed for 15 minutes)
Experiment: Total brain infarct model, survival (Test Example 2)
Type: in vivo, gerbil
Conditions: 3 mg/kg intraperitoneally twice (60 min before obstruction, 90 min after reperfusion), n=11, vehicle group 0%, p<0.05
Protocol: Mature male gerbils were divided into 2 groups and total brain infarct models were constructed by obstructing the bilateral common carotid arteries for 15 minutes (Nagisa et al., Basic Pharmacology & Therapeutics,23, 103-108, 1995). Control saline (vehicle) (Group A) and compound 2 (3 mg/kg) (Group B) were administered intraperitoneally twice, namely 60 minutes before obstruction and 90 minutes after reperfusion and the survival rates at 8 hours following reperfusion were compared between the groups. Intergroup comparison was made by ANOVA test (one-way analysis of variance).
For `COc1ccccc1Oc1c(NS(=O)(=O)c2ccc(C(C)(C)C)cc2)nc(-c2ncccn2)nc1OCCO` [compound 2, 4-Tert-butyl-N-[6-(2-hydroxyethoxy)-5-(2-methoxyphenoxy)-2,2'-bipyrimidin-4-yl]-benzene sulfonamide], the “survival rate at 8 hours after reperfusion” value was 36%.

System: endothelin A receptor / endothelin B receptor / endothelin converting enzyme
Experiment: not given
Conditions: ETA: endothelin A receptor; ETB: endothelin B receptor; ECE: endothelin converting enzyme (inhibition); from the literature cited in the tables; cited from earlier work
In the case of “cyc(Gly-Asn-Trp-His-Gly-Thr-Ala-Pro-Asp)-Trp-Phe-Asn-Tyr-Tyr-Trp [RES-7011]”, the Selectivity is listed as “ETB”. For cyc(D-Trp-D-Asp-Pro-D-Val-Leu) [BQ-123], the Selectivity is given as “ETA”. For `COc1ccccc1Oc1c(NS(=O)(=O)c2ccc(C(C)(C)C)cc2)nc(-c2ncccn2)nc1OCCO` [compound 2, 4-Tert-butyl-N-[6-(2-hydroxyethoxy)-5-(2-methoxyphenoxy)-2,2'-bipyrimidin-4-yl]-benzene sulfonamide], the Selectivity is listed as “ETA/ETB”. In the case of “Ac-D-Bhg-Leu-Asp-Ile-Ile-Trp.2Na [PD145065]”, the Selectivity is listed as “ETA/ETB”. In the case of “Dmpc-.tau.-MeLeu-D-Trp(1-CO2 CH3)-D-Nle-OH [BQ-788]”, the Selectivity is listed as “ETB”. For `O=P(CN[C@@H](Cc1ccc(-c2ccccc2)cc1)c1nnn[nH]1)(Oc1ccccc1)Oc1ccccc1` [CGS-26393, diphenyl[(S)-2-diphenyl-4-yl-1-(1H-tetrazol-5-yl)-ethylamino-methyl] phosphonate], the Selectivity is listed as “ECE”. In the case of `CC(C)C[C@H](NC(=O)N1CCCCCC1)C(=O)N[C@H](Cc1cn(C)c2ccccc12)C(=O)N[C@H](Cc1ccc(O)cc1)C(=O)O` [PD151242, (N-[(hexahydro-1-azepinyl)carbonyl])-L-Leu(1-Me)D-Trp-D-Tyr], the Selectivity is listed as “ETA”. In the case of `CC(C)C[C@H](NC(=O)N1CCCCCC1)C(=O)NC(Cc1cn(C)c2ccccc12)C(=O)N[C@H](Cc1ccccn1)C(=O)O` (stereo partly drawn) [FR139317, (R)-2-{(S)-2-([1-{hexahydro-1H-azepinyl}carbonyl]-amino-methyl-pentamoyl)}-amino-3-(3[1-methyl-1H-indolyl])propionylamino-3-(2-pyridyl)propionic acid], the Selectivity is listed as “ETA”. For `COc1cccc(Oc2c(NS(=O)(=O)c3ccc(C(C)(C)C)cc3)ncnc2OCCO)c1` [Ro46-2005, 4-tert-butyl-N-[6-(2-hydroxyethoxy)-5-(3-methoxyphenoxy)-4-pyrimidinyl]-benzenesulphonamide], the Selectivity is listed as “ETA/ETB”. For `Cc1cc(C)cc(C(=O)N(C)[C@H](Cc2ccc(-c3ccccc3)cc2)C(=O)N[C@@H](Cc2c[nH]c3ccccc23)C(=O)O)c1` [IRL2500, N-(3,5-dimethylbenzoyl)-N-methyl-(D)-[(4-phenyl)-phenyl]-alanyl-L-tryptophan], the Selectivity is given as “ETB”. In the case of `CC(=O)NC(CSC12CCC3(O)CC(C)=CC(=O)C3(O)C1(O)C(=O)c1cccc(O)c1C2=O)C(=O)O` (centres unmarked) [WS009A, 2-acetamido-3-[[1,4,4a,5,6,6a,7,12,12a,12b-decahydro-4a,8,12a,12b-tetra-hydroxy-3-methyl-1,7,12-trioxobenz[a]anthracen-6a-yl]-thio]propionic acid], the Selectivity is given as “ETA”. For `CCCCCOc1c(OC)cc(CC2=C(c3ccc4c(c3)OCO4)C(=O)OC2(O)c2ccc(OC)cc2)cc1OC` (centres unmarked) [PD160672, 3-benzo(1,3)dioxol-5-yl-(3,5-dimethoxy-4-pentyloxybenzyl)-5-hydroxy-5-(4-methoxyphenyl)-5H-furan-2-one], the Selectivity is given as “ETA/ETB”. In the case of `CC(C)C[C@H](NP(=O)(O)CCc1ccc2ccccc2c1)C(=O)N[C@@H](Cc1c[nH]c2ccccc12)C(=O)O` [N-2-(2-naphthyl)ethyl-phosphonyl-L-Leu-L-Trp], the Selectivity is listed as “ECE”. For “27-O-3-[2-(3-carboxy-acryloylamino)-5-hydroxyphenyl]-acryloyloxy myricerone, sodium salt [97-139]”, the Selectivity is listed as “ETA”. In the case of `COc1ccc(C(=O)C(Cc2cc(OC)c(OC)c(OC)c2)=C(C(=O)O)c2ccc3c(c2)OCO3)cc1` [PD156707, 2-benzo(1,3)dioxol-5-yl-4-(4-methoxyphenyl)-4-oxo-3-(3,4,5-trimethoxybenzyl)-but-2-enoate], the Selectivity is listed as “ETA”. For `COc1ccc(C(=O)C(Cc2ccccc2)=C(C(=O)O)c2ccc3c(c2)OCO3)cc1` [PD155080, 2-benzo(1,3)dioxol-5-yl-3-benzyl-4-(4-methoxyphenyl)-4-oxobut-2-enoate], the Selectivity is given as “ETA”. In the case of `COc1cc(C2=C(CC3CCCCC3)C(O)(c3ccc4c(c3)OCCO4)OC2=O)cc2c1OCO2` (centres unmarked) [PD160874, 4-cryclohexyl-methyl-5-[2,3-dihydro-benzo(1,4)dioxin-6-yl]-5-hydroxy-3-[7-methoxybenzo(1,3)-dioxol-5-yl]-5H-furan-2-one], the Selectivity is given as “ETA/ETB”. For “[Cys^11 -Cys^15 ]-ET-1(11-21) [IRL-1038]”, the Selectivity is given as “ETB”. For `CCCOc1cccc(CC(C(=O)c2ccc(OC)cc2)=C(C(=O)O)c2ccc3c(c2)OCO3)c1` [PD155719, 2-(1,3-benzodioxol-5-yl)-4-(4-methoxyphenyl)-4-oxo-3[(3-propoxyphenyl)methyl]-2-butenoic acid], the Selectivity is listed as “ETA”. In the case of `CC(C)C[C@H](NP(=O)(O)O[C@@H]1O[C@@H](C)[C@H](O)[C@@H](O)[C@H]1O)C(=O)N[C@@H](Cc1c[nH]c2ccccc12)C(=O)O` [Phosphoramidon, N-phosphonyl L-Leu-L-Trp], the Selectivity is listed as “ECE”. In the case of “cys(D-Sal-L-Pro-D-Val-L-Leu-D-Trp) [BQ-153]”, the Selectivity is listed as “ETA”. In the case of `CC(C)C[C@H](NP(=O)(O)CC(O)CO)C(=O)N[C@@H](Cc1c[nH]c2ccccc12)C(=O)[O-].CC(C)C[C@H](NP(=O)(O)CC(O)CO)C(=O)N[C@@H](Cc1c[nH]c2ccccc12)C(=O)[O-].[Na+].[Na+]` (stereo partly drawn) [S-17162, N-(2,3 dihydroxy propyl phosphonyl)-(S)-Leu-(S)-Trp-OH, disodium salt], the Selectivity is given as “ECE”. In the case of `Cc1noc(NS(=O)(=O)c2cccc3c(N(C)C)cccc23)c1C` [BMS-182874, 5-(dimethylamino)-N-(3,4-dimethyl-5-isoxazolyl)-1-naphthalene sulphonamide], the Selectivity is given as “ETA”. For `CCCOc1ccc2c(c1)[C@@H](c1ccc(OC)cc1OCCO)[C@H](C(=O)O)[C@H]2c1ccc2c(c1)OCO2` [SB-217242, (+)-(1S,2R,3S)-3-[2-(2-hydroxyeth-1-yloxy)-4-methoxyphenyl]-1-(3,4-methylenedioxyphenyl)-5-(prop-1-yloxy)indan-2-carboxylic acid], the Selectivity is listed as “ETA/ETB”. In the case of `O=P(O)(O)CN[C@@H](Cc1ccc(-c2ccccc2)cc1)c1nnn[nH]1` [CGS-26303, (S)-2-diphenyl-4-yl-1-(1H-tetrazol-5-yl)-ethylaminomethyl phosphonic acid], the Selectivity is given as “ECE”. In the case of `CCCc1cc(C(=O)O)ccc1OC(C(=O)NS(=O)(=O)c1ccc(C(C)C)cc1)c1ccc2c(c1)OCO2` (racemic) [L-749329, (±)N-(4-isopropylbenzenesulphonyl)-α-(4-carboxy-2-n-propylphenoxy)-3,4-methylene dioxyphenyl acetamide], the Selectivity is listed as “ETA”. For “Ac-D-Dip-Leu-Asp-Ile-Ile-Trp.2Na [PD142893]”, the Selectivity is listed as “ETA/ETB”. For `Cc1cc(C)cc(C(=O)N(C)[C@H](Cc2ccc(-c3ccsc3)cc2)C(=O)N[C@@H](Cc2c[nH]c3ccccc23)C(=O)O)c1` [IRL2659, N-(3,5-dimethylbenzoyl)-N-methyl-(D)-[4-(3-thienyl)-phenyl]-alanyl-L-tryptophan], the Selectivity is listed as “ETB”. In the case of `CCCc1cc(C(=O)O)ccc1OC(C(=O)NS(=O)(=O)c1ccc(C(C)C)cc1)c1ccc2c(c1)OCO2` (single isomer, unassigned; (-)) [L-754142, (-)N-(4-isopropylbenzenesulphonyl)-α-(4-carboxy-2-n-propylphenoxy)-3,4-methylene dioxyphenyl acetamide], the Selectivity is listed as “ETA”. In the case of `COC(=O)c1cc(O)cc(OC)c1Oc1cc(C)cc(O)c1C(=O)O` [Asterric acid], the Selectivity is listed as “ETA”. In the case of `Cc1cc(C)cc(C(=O)N(C)[C@H](Cc2ccc(-c3ccno3)cc2)C(=O)N[C@@H](Cc2c[nH]c3ccccc23)C(=O)O)c1` [IRL2796, N-(3,5-dimethylbenzoyl)-N-methyl-(D)-[4-(5-isoxazolyl)-phenyl]-alanyl-L-tryptophan], the Selectivity is listed as “ETB”. In the case of `COc1ccc(-c2nc(NS(=O)(=O)c3ccc(C(C)(C)C)cc3)c(Oc3ccccc3OC)c(OC[C@@H](O)CO)n2)cc1` [Ro46-8443, 4-tert-butyl-N-[(S)6-(2,3-dihydroxypropoxy)-5-(2-methoxyphenoxy)-2-(4-methoxyphenyl)-pyrimidin-4-yl]-benzene sulphonamide], the Selectivity is listed as “ETB”. In the case of `CCCc1cc(C(=O)OC)ccc1CC(C(=O)NS(=O)(=O)c1ccc(C(C)C)cc1)c1ccc2c(c1)OCO2` (racemic) [L-751281, (±)N-[2-(3,4-methylenedioxyphenyl)-3-(4-carbomethoxy-2-propylphenyl)-propanoly]-4-(isopropyl)benzene sulphonamide], the Selectivity is listed as “ETA”. For `CC1(C)CC[C@]2(C(=O)O)CC[C@]3(COC(=O)/C=C/c4ccc(O)c(O)c4)C(=CC[C@@H]4[C@@]5(C)CCC(=O)C(C)(C)[C@@H]5CC[C@]43C)[C@@H]2C1` [50-235, 27-O-caffeoyl myricerone], the Selectivity is listed as “ETA”.
